Test results reported in patent US20260263401A1, “Topical composition and uses thereof” (UNIVERSIDADE DE COIMBRA, priority 2022, published 2026).

Test: In vitro permeation studies (IVPT), Franz cells
Format: in vitro ADME, human
Conditions: formulated in the hydrogel, single application, up to 24 h, non-occlusive
Description: In an embodiment, the same vertical diffusional system of IVRT studies was used to evaluate the potential in vitro penetration of the active molecules. Human surgical skin pieces (person, type 3 skin, arm tissue) were surgically removed at Central Lisbon University Hospital Centre, after the approval of the Bioethics Committee, and processed as described in (Miranda et al., 2020). Written informed consent was obtained from the participant (Process number 447/2017). One day before the experiments, frozen epidermal specimens were left to thaw at room temperate. Afterwards, the skin sheets, with the stratum corneum side facing up, were gently placed on glass flasks filled with ultrapurified water and left to stabilize overnight, at 4° C. […] NAC and LYS were quantified by RP-HPLC, as described in the section above. […]
In an embodiment, NAC and LYS were quantified by reversed-phase high-pressure liquid chromatography (RP-HPLC), using a Shimadzu LC-2010HT chromatographic system, equipped with an LC-20AD quaternary pump, a SIL-20AHT autosampler, a CTO-10AS over and an SPD-M2OA photodiode array detector. […] Using an injection volume of 50 μL, NAC and LYS were determined at 200 and 215 nm and eluted at 5.4 and 2.2 min, respectively.

For `CC(=O)N[C@@H](CS)C(=O)O` [NAC, n-acetyl cysteine], the “quantity of the active molecules in the receptor compartment (penetration of stratum corneum of human skin)” value was “below the limit of quantification”.

In the case of `NCCCC[C@H](N)C(=O)O` [LYS, lysine], the “quantity of the active molecules in the receptor compartment (penetration of stratum corneum of human skin)” value was “below the limit of quantification”.
